# Read-outs that look alike come from different tables or passages of the source.
# Columns and labels:
# A2780cisR = assay: Microculture tetrazolium (MTS) cell survival assay; assay type: cell-based; conditions: for IC50: 24 hours incubation, MTS; for resistance factor (IC50 resistant/IC50 sensitive): A2780cisR/A2780
# Experimental: (§1) Cytotoxicity of the synthesized complexes was also tested by the MTS method^(21). Accordingly, the compounds were incubated for 24 hours with the corresponding cell lines and the cell survival in compound-treated cultures was evaluated.
# (§2) The complexes were incubated for 24 hours with the above mentioned cell lines and the cell survival in compound-treated cultures was evaluated by the (microculture tetrazolium) MTS method as previously reported.
# 41McisR = assay: Microculture tetrazolium (MTS) cell survival assay; assay type: cell-based; conditions: for resistance factor (IC50 resistant/IC50 sensitive): 41McisR/41M; for IC50: 24 hours incubation, MTS
# Experimental: as §1, §2
# 41M = assay: Microculture tetrazolium (MTS) cell survival assay; assay type: cell-based; conditions: 24 hours incubation
# Experimental: as §1, §2
# A2780 = assay: Microculture tetrazolium (MTS) cell survival assay; assay type: cell-based; conditions: 24 hours incubation
# Experimental: as §1, §2
# CH1cisR = assay: Microculture tetrazolium (MTS) cell survival assay; assay type: cell-based; conditions: for IC50: 24 hours incubation, MTS; for resistance factor (IC50 resistant/IC50 sensitive): CH1cisR/CH1
# Experimental: as §1, §2
# CH1 = assay: Microculture tetrazolium (MTS) cell survival assay; assay type: cell-based; conditions: 24 hours incubation
# Experimental: as §1, §2
# calf thymus DNA = assay: DNA binding (calf thymus DNA platination); conditions: for t1/2 half time of the binding to calf thymus DNA: 10 mM NaClO4, 37° C., ri = 0.08, differential pulse polarography; for ΔTm, 0.01M Na+ / ΔTm, 0.2 M / ΔΔεmax, maximum of the positive CD band at around 275 nm: rb = 0.05; for ΔΔεmax, maximum of the positive CD band at around 275 nm: difference between control and platinated DNA
# Experimental: The formation of calf thymus DNA platination was also examined. To this end, calf thymus DNA was incubated with different compounds (Table 3) in which the following parameters were determined: […]
# C-26 cells [1] = assay type: cell-based; conditions: C-26 cells, mean ± SD
# Experimental: (§3) A human ovarian carcinoma cell line (OV-1063), established at the Hadassah University hospital and human colon carcinoma cell line (C-26) were maintained in RPMI-1640 medium supplemented with 10% FCS, antibiotics and glutamine. All culture medium components were purchased from Biological Industries (Beit-HaEmek, Israel). Both cell lines were maintained at 37° C. in a water-jacketed CO2 incubator.
# (§4) Cytotoxicity of the synthesized complexes was tested by the methylene blue (MB) staining assay^(19). A fixed number of exponentially growing cells in 200 μl medium were plated in 96-microwell, flat-bottomed plates. For each of the complexes tested, 4 well were used. Following 24 hr in culture, 20 μl of different concentration of the complexes were added to each well containing untreated cells. Normal saline was added to the controls. Cells were exposed to complexes for 4, 24, or 72 hr. At the end of exposure for a fixed time interval, the treated cells as well as parallel control cells were washed and incubation was continued in fresh medium until termination of the experiment. Following 72 hr of growth, cells were fixed by adding 50 μl of 2.5% of glutaraldehyde to each well for 15 min. Fixed cells were rinsed 10 times with fresh de-ionized water and once with borate buffer (0.1 M, pH=8.5), dried and stained with MB (100 μl of 1% solution in 0.1 M borate buffer, pH=8.5) for 1 hr at room temperature. Stained cells were rinsed thoroughly with de-ionized water to remove any non-cell-bound die and then dried. The MB bound to the fixed cells was extracted by incubation at 37° C. with 200 μl of 0.1N HCl for 1 hr, and the net optical density (OD) of the die in each well was determined by a plate spectrophotometer (Labsystems Multyskan BICHROMATIC, Finland) at 620 nm.
# OV-1063 cells [2] = assay: Methylene blue (MB) assay of cell survival; assay type: cell-based, human; conditions: mean ± SD
# Experimental: as §3, §4
# C-26 cells [3] = assay: Determination of Pt-DNA adducts by FAAS; assay type: cell-based, human; conditions: C-26, 24 hr
# Experimental: (§5) Cells were seeded for 48 hr before one of the drugs was added to the culture medium. After 24 hr of exposure, the complexes were removed and the cells washed twice with ice-cold PBS and pelleted. DNA from platinum-containing material (2*10^6 cells) was extracted from the cell pellet by QIAamp DNA Blood Kit (QIAGEN, Germany) according to the manufacture instructions. DNA yield was determined by measuring the concentration of DNA in the eluate by absorbance at 260 nm.
# OV-1063 cells [4] = assay: Determination of Pt-DNA adducts by FAAS; assay type: cell-based, human; conditions: OV-1063, 24 hr
# Experimental: as §5
# C-26 cells [5] = assay: Platinum complex intracellular accumulation (FAAS); assay type: cell-based, human; conditions: C-26, 24 hr
# Experimental: (§6) Cells were seeded for 48 hr before one of the complexes was added to the culture medium. After 24 hr of exposure, the complexes were removed and the cells washed twice with ice-cold PBS and pelleted. The cells (1*10^6) were dried and mineralized by heating for 10 min in 65% HNO3 (BDH, England)^(22). Samples were dissolved in de-ionized water and each sample was measured at two different dilutions by flameless Zeeman atomic absorption spectrometer (FAAS). The calibration curves included 5 standards of K2PtCl4 stock solution with concentrations ranging from 50 to 250 ng platinum per ml. Platinum content was expressed as picomoles platinum per 1*10^6 cells.
# (§7) The Pt content associated with the cells was measured by Atomic Absorption Spectroscopy (AAS).
# OV-1063 cells [6] = assay: Platinum complex intracellular accumulation (FAAS); assay type: cell-based, human; conditions: OV-1063, 24 hr
# Experimental: as §6, §7
# [7] = listed as cis-[PtCl2(NH3)(pip)]
# [8] = 4 h exposure, read-out: IC50, 4 h
# [9] = 24 h exposure, read-out: IC50, 24 h
# [10] = 72 h exposure, read-out: IC50, 72 h
# [11] = listed as cis-[PtCl2(NH3)(pic)]
Molecule,IC50 (A2780cisR) [µM],resistance factor (IC50 resistant/IC50 sensitive) (A2780cisR),resistance factor (IC50 resistant/IC50 sensitive) (41McisR),IC50 (41McisR) [µM],IC50 (41M) [µM],IC50 (A2780) [µM],IC50 (CH1cisR) [µM],resistance factor (IC50 resistant/IC50 sensitive) (CH1cisR),IC50 (CH1) [µM],"% IEC/adduct, frequency of interstrand crosslinks (calf thymus DNA) [%]",unwinding angle per adduct (calf thymus DNA) [°],t1/2 half time of the binding to calf thymus DNA (calf thymus DNA) [min],"ΔTm, 0.01M Na+ (calf thymus DNA)","ΔTm, 0.2 M (calf thymus DNA)",other results
Trans-[PtCl2(n-butylamine)(piperazine)].HCl [Complex 10],28 ± 2,1.8,1.5,48 ± 3,32 ± 5,16 ± 2,19 ± 3,1.1,17 ± 2,,,,,,
"C1CNCCN1.Cl.N.[Cl][Pt][Cl] [Complex 8, Trans-[PtCl2(NH3)(piperazine)].HCl]",44 ± 4,8.8,3.0,155 ± 12,52 ± 5,5 ± 1,34 ± 4,2.8,12 ± 3,13,26.4,20,6.3 0.C,−1.9 0.C,"ΔΔεmax, maximum of the positive CD band at around 275 nm (calf thymus DNA): 0.01"
"C1CCNCC1.N.[Cl][Pt][Cl] [Complex 7, cis-[PtCl2(NH3)(piperidine)]]",234 ± 17,9,(4.9),315 ± 24,64 ± 5,26 ± 3,263 ± 17,(7.3),36 ± 4,,,113,,,"% IEC/adduct, frequency of interstrand crosslinks (calf thymus DNA; [7]): 5%; unwinding angle per adduct (calf thymus DNA; [7]): 13.2°; ΔTm, 0.01M Na+ (calf thymus DNA; [7]): −2.5 0.C; ΔTm, 0.2 M (calf thymus DNA; [7]): −6.0 0.C; ΔΔεmax, maximum of the positive CD band at around 275 nm (calf thymus DNA; [7]): 0.93"
Cc1ccncc1.N.[Cl][Pt][Cl] [trans-[PtCl2(NH3)(4-picoline)]] [reference compound],,,,,,,,,,40,39.6,50,+7.2 0.C,+0.6 0.C,"IC50 (C-26 cells [1]; [8]): 12 ± 1.2 µM; IC50 (C-26 cells [1]; [9]): 11 ± 2 µM; IC50 (C-26 cells [1]; [10]): 11 ± 1.1 µM; ΔΔεmax, maximum of the positive CD band at around 275 nm (calf thymus DNA): −0.29; IC50 (OV-1063 cells [2]; [8]): 18 ± 3.7 µM; IC50 (OV-1063 cells [2]; [9]): 16 ± 3.5 µM; IC50 (OV-1063 cells [2]; [10]): 14 ± 2.3 µM"
"C1CNCCN1.Cl.N.[Cl][Pt@SP1][Cl] [Complex 16, cis-[PtCl2(NH3)(piperazine)].HCl]",25 ± 2,2.5,2.4,112 ± 12,46 ± 3,10 ± 1,56 ± 3,2.0,28 ± 2,6,13,35,3.5 0.C,−4.5 0.C,
Cc1ccncc1.N.[Cl][Pt][Cl] [cis-[PtCl2(NH3)(4-picoline)]] [reference compound],,,,,,,,,,,,,,,"IC50 (C-26 cells [1]; [8]): 5.1 ± 1.2 µM; IC50 (C-26 cells [1]; [9]): 4.7 ± 2.4 µM; IC50 (C-26 cells [1]; [10]): 3.7 ± 1.6 µM; t1/2 half time of the binding to calf thymus DNA (calf thymus DNA; [11]): 21 min; % IEC/adduct, frequency of interstrand crosslinks (calf thymus DNA; [11]): 4%; unwinding angle per adduct (calf thymus DNA; [11]): 12°; ΔTm, 0.01M Na+ (calf thymus DNA; [11]): +1.6 0.C; ΔTm, 0.2 M (calf thymus DNA; [11]): −4.8 0.C; ΔΔεmax, maximum of the positive CD band at around 275 nm (calf thymus DNA; [11]): 0.92; IC50 (OV-1063 cells [2]; [8]): 6 ± 2.2 µM; IC50 (OV-1063 cells [2]; [9]): 5.1 ± 1.9 µM; IC50 (OV-1063 cells [2]; [10]): 4 ± 1.7 µM"
"C1CCNCC1.C1CCNCC1.[Cl][Pt][Cl] [Complex 6, Trans-[PtCl2(piperidine)2]]",,,,,,,,,,,,,,,IC50 (CH1; listed as trans-PtCl2(pip)2): 35 ± 2 µM
Trans-[PtCl2(isopropylamine)(piperazine)].HCl [Complex 9],30 ± 2,2.1,3.2,122 ± 8,38 ± 3,14 ± 1,50 ± 3,5.0,10 ± 1,,,,,,
trans-PtCl2(NH3)(4-pip)Cl2,20 ± 2,4.0,5.5,150 ± 8,27 ± 2,5 ± 0.7,94 ± 6,(6.3),15 ± 2,,,,,,
"C1CNCCN1.C1CNCCN1.Cl.[Cl][Pt][Cl] [Complex 14, Trans-[PtCl2(piperazine)(piperazine)].HCl]",43 ± 3,2.5,3.6,153 ± 10,43 ± 3,17 ± 3,53 ± 3,2.0,26 ± 2,,,,,,
Trans-[PtCl2(piperidine)(piperazine)].HCl [Complex 12],64 ± 5,3.6,3.2,118 ± 9,37 ± 4,18 ± 2,85 ± 7,3.9,22 ± 3,,,,,,
"C1CCNCC1.C1CCNCC1.[Cl][Pt][Cl] [cis-PtCl2(pip)2, reference compound]",250 ± 12,(16.7),6,300 ± 25,50 ± 3,15 ± 2,280 ± 12,(8),32 ± 2,,,,,,
"N.N.[Cl][Pt+2][Cl] [Transplatin, trans-[PtCl2(NH3)2], reference compound]",> 200,,,> 200,> 200,> 200,> 200,,> 200,12,9.4,100,+8.7 0.C,+0.6 0.C,"Pt-DNA adducts (C-26 cells [3]): 0 pmol Pt/50 μg DNA; Pt-DNA adducts (OV-1063 cells [4]): 0 pmol Pt/50 μg DNA; IC50 (C-26 cells [1]; [8]): 64 ± 2 µM; IC50 (C-26 cells [1]; [9]): 46 ± 3.1 µM; IC50 (C-26 cells [1]; [10]): 41 ± 1.7 µM; ΔΔεmax, maximum of the positive CD band at around 275 nm (calf thymus DNA): −0.34; Penetration to cells (C-26 cells [5]): 384 pmol Pt/1 * 10^6 cells; Penetration to cells (OV-1063 cells [6]): 474 pmol Pt/1 * 10^6 cells; IC50 (OV-1063 cells [2]; [8]): 81 ± 4.3 µM; IC50 (OV-1063 cells [2]; [9]): 73 ± 5.1 µM; IC50 (OV-1063 cells [2]; [10]): 52 ± 3.2 µM"
